According to US20260365663A1, “EMOPAMIL-BINDING PROTEIN INHIBITORS AND USES THEREOF” (BIOGEN MA INC., priority 2022, published 2026):

Target: T1, EBP (Homo sapiens, UniProt Q15125)
T1 construct: HEK293T cells were utilized as the source of EBP enzyme; endogenous in cells; host or cells: HEK293T
Assay: EBP Functional Assay (EBP immunoaffinity LC-MS assay)
Assay type: biochemical
Details: not given
Procedure: The EBP immunoaffinity (IA) LC-MS assay measures the potency of small molecule inhibitors of EBP by quantifying their concentration-dependent changes in the enzyme's substrate and product using liquid chromatography atmospheric pressure chemical ionization multiple reaction monitoring mass spectrometry (LC-APCI MRM MS). HEK293T cells were utilized as the source of EBP enzyme. The enzyme was incubated with the small molecule inhibitors at variable concentrations for 30 min. Deuterated form of EBP substrate, zymosterol-d5 (Avanti Polar Lipids, Cat #700068P-1 mg), was then added and the plate was incubated at 37 °C for 4 h. Finally, the sterol isomers were extracted and injected to LC-APCI MRM MS. MRM transition used for the quantification for both zymosterol and dihydrolathosterol (substrate and product of EBP enzymatic reaction, respectively) is 372.3-203.2, CE 30 and DP 80 in positive ion mode. Percent conversion of the zymosterol-d5 to dehydrolathosterol-d5 was used to derive IC50 curves. Tasin-1 (1′-[(4-Methoxyphenyl)sulfonyl]-4-methyl-1,4′-bipiperidine, CAS 792927-06-1) was used as the reference small molecule inhibitor.
Percent conversion versus the compound concentration data were fit to the following 4-parameter logistic model to generate IC50 curves: […]

T1 sequence (Q15125 whole entry): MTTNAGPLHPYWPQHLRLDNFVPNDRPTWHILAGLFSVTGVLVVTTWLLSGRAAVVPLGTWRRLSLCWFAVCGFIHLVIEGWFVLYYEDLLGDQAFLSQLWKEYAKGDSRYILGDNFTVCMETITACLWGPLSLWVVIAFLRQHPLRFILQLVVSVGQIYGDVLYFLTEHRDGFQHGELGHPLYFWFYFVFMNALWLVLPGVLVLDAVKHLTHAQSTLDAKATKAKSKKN

**Q.** How did the IC50 turn out when `COc1ccc(S(=O)(=O)N2CC3(CC(N4CCC(C)CC4)CO3)C2)c(C)n1` (stereo not shown) [Example 56, 2-((6-Methoxy-2-methylpyridin-3-yl)sulfonyl)-7-(4-methylpiperidin-1-yl)-5-oxa-2-azaspiro[3.4]octane] was run?
**A.** Its IC50 is < 100 nM.

**Q.** With `Cc1nn(C)c(S(=O)(=O)N2CC3(CCC(N4CCOCC4)C3)C2)c1Cl` (stereo not shown) [Example 37, 4-(2-((4-Chloro-1,3-dimethyl-1H-pyrazol-5-yl)sulfonyl)-2-azaspiro[3.4]octan-6-yl)morpholine] as the compound, how does the IC50 read?
**A.** Its IC50 is 100 to 500 nM.

**Q.** How did the IC50 turn out when `COc1ccc(S(=O)(=O)N2CC3(CCC(N4CCOCC4)C3)C2)c(C(F)(F)F)n1` (stereo not shown) [Example 39, 4-(2-((6-Methoxy-2-(trifluoromethyl)pyridin-3-yl)sulfonyl)-2-azaspiro[3.4]octan-6-yl)morpholine] was run?
**A.** The IC50 was < 100 nM.

**Q.** `Cc1nc(Cl)ccc1S(=O)(=O)N1CC2(CCC(N3CCOCC3)C2)C1` (stereo not shown) [Example 42, 4-(2-((6-Chloro-2-methylpyridin-3-yl)sulfonyl)-2-azaspiro[3.4]octan-6-yl)morpholine] was tested. Which IC50 did it give?
**A.** Its IC50 is < 100 nM.

**Q.** For `Cc1cc(C)c(S(=O)(=O)N2CC3(CCC(N4CCOCC4)C3)C2)cn1` (stereo not shown) [Example 47, 4-(2-((4,6-Dimethylpyridin-3-yl)sulfonyl)-2-azaspiro[3.4]octan-6-yl)morpholine], which IC50 is on record?
**A.** Its IC50 is 100 to 500 nM.

**Q.** With `N#Cc1cc(F)cc(S(=O)(=O)N2CC3(CC[C@H](N4CCOCC4)C3)C2)c1` [Example 52, (S)-3-Fluoro-5-((6-morpholino-2-azaspiro[3.4]octan-2-yl)sulfonyl)benzonitrile] as the compound, how does the IC50 read?
**A.** Its IC50 is 500 to 3000 nM.

**Q.** For `N#Cc1cc(F)cc(S(=O)(=O)N2CC3(CC[C@@H](N4CCOCC4)C3)C2)c1` [Example 50, (R)-3-Fluoro-5-((6-morpholino-2-azaspiro[3.4]octan-2-yl)sulfonyl)benzonitrile], which IC50 is on record?
**A.** Its IC50 is 500 to 3000 nM.

Same assay, conditions: HEK293T cells as source of EBP enzyme; zymosterol-d5 substrate; inhibitor 30 min, then 37 °C for 4 h; percent conversion to dehydrolathosterol-d5 by LC-APCI MRM MS; read-out: EBP Functional Assay

**Q.** `Cc1nc(C(F)(F)F)ncc1S(=O)(=O)N1CC2(CC(NC3CCOCC3)C2)C1` [Example 76, 2-((4-methyl-2-(trifluoromethyl)pyrimidin-5-yl)sulfonyl)-N-(tetrahydro-2H-pyran-4-yl)-2-azaspiro[3.3]heptan-6-amine] was tested. Which IC50 did it give?
**A.** The IC50 was 100 to 500 nM.

**Q.** `N#Cc1cc(F)cc(S(=O)(=O)N2CC3(CC(N4CC5(COC5)C4)CO3)C2)c1` (stereo not shown) [Example 28, 3-((7-(2-Oxa-6-azaspiro[3.3]heptan-6-yl)-5-oxa-2-azaspiro[3.4]octan-2-yl)sulfonyl)-5-fluorobenzonitrile] was tested. Which IC50 did it give?
**A.** The IC50 was 500 to 3000 nM.

**Q.** Which IC50 does the source give for `Cc1nc(C(C)(F)F)ccc1S(=O)(=O)N1CC2(CC(N(C)C3COC3)C2)C1` [Example 73, 2-((6-(1,1-difluoroethyl)-2-methylpyridin-3-yl)sulfonyl)-N-methyl-N-(oxetan-3-yl)-2-azaspiro[3.3]heptan-6-amine] here?
**A.** The IC50 was 100 to 500 nM.

**Q.** `Cc1nc(C(F)(F)F)ccc1S(=O)(=O)N1CC2(CC(NCC3(C)COC3)C2)C1` [Example 9, 2-((2-Methyl-6-(trifluoromethyl)pyridin-3-yl)sulfonyl)-N-((3-methyloxetan-3-yl)methyl)-2-azaspiro[3.3]heptan-6-amine] was tested. Which IC50 did it give?
**A.** Its IC50 is < 100 nM.

**Q.** For `Cc1nc(Cl)ccc1S(=O)(=O)N1CC2(CC[C@@H](N3CCOCC3)C2)C1` (single isomer, unassigned) [Example 64], which IC50 is on record?
**A.** The IC50 was < 100 nM.

**Q.** How did the IC50 turn out when `Cc1nc(C(F)(F)F)ccc1S(=O)(=O)N1CC2(CC[C@H](N3CCOCC3)C2)C1` (single isomer, unassigned) [Example 61] was run?
**A.** Its IC50 is 100 to 500 nM.

**Q.** With `N#Cc1ccc(F)c(S(=O)(=O)N2CC3(CC(NC4CCC(F)(F)CC4)CO3)C2)c1` (stereo not shown) [Example 26, 3-((7-((4,4-Difluorocyclohexyl)amino)-5-oxa-2-azaspiro[3.4]octan-2-yl)sulfonyl)-4-fluorobenzonitrile] as the compound, how does the IC50 read?
**A.** Its IC50 is 500 to 3000 nM.

**Q.** `Cc1cc(S(=O)(=O)N2CC3(CC[C@@H](N4CCOCC4)C3)C2)n(C)n1` (single isomer, unassigned) [Example 66] was tested. Which IC50 did it give?
**A.** Its IC50 is 100 to 500 nM.

**Q.** Which IC50 does the source give for `Cc1nc(C(F)(F)F)ncc1S(=O)(=O)N1CC2(CC(N3CC4(CCO4)C3)C2)C1` [Example 16, 6-(2-((4-Methyl-2-(trifluoromethyl)pyrimidin-5-yl)sulfonyl)-2-azaspiro[3.3]heptan-6-yl)-1-oxa-6-azaspiro[3.3]heptane] here?
**A.** Its IC50 is 500 to 3000 nM.
